Literature values as cited in patent US6924273B2, “Chondroprotective/restorative compositions and methods of use thereof” (priority 2000, dated 2005).

Key:
rats = conditions: 5000 mg/kg orally
mice = conditions: 5000 mg/kg orally
[1] = oral administration
[2] = oral administration; remark: listed apart in the source

N[C@H]1C(O)O[C@H](CO)[C@@H](O)[C@@H]1O.O=S(=O)(O)O (some centres unmarked) [Glucosamine sulfate]
mortality (no LD50 established) (rats): no mortality
mortality (no LD50 established) (mice): no mortality
absorbed [1]: greater than 90%

Chondroitin sulfate [CS]
bioavailability [2]: around 15%

N[C@H]1C(O)O[C@H](CO)[C@@H](O)[C@@H]1O (some centres unmarked) [Glucosamine]
solubility in water: very soluble in water
